Results on 6 compounds are retold here after article PMC4113750 (Toxins, 2014).

Type in all cases: cell-based
For one assay, the target named is T1, rNaV1.4 (Rattus norvegicus, UniProt P15390).
T1 construct: expressed in transfected cells; host or cells: HEK 293 cells, transient transfection
Kind of assay: Whole-cell patch-clamp inhibition of rNaV1.4 in HEK 293 cells. Particulars: HEK 293 cells with β1 subunit, 50-ms depolarization to −10 mV from −100 mV every 5 s, Hill fit, mean ± S.E., room temperature. An excerpt: (§1) Using whole-cell voltage clamp recording techniques, currents were elicited by a 50-ms depolarizing potential of −10 mV from a holding potential of −100 mV every 5 s. […] The time constants for these inhibitions were 34.01 ± 6.81 and 34.24 ± 8.13 s, respectively (Figure 1a,d). […] Dose-response curves for NaV1 subtypes tested are summarized in Figure 1e and consist of at least three data points for each concentration.
After purification, we characterized the interaction of each mutant toxin with NaV1.4. Under whole-cell patch clamp configuration, rNaV1.4 current was elicited by a 50-ms depolarizing potential of −10 mV from a holding potential of −100 mV every 5 s.
All the voltage gated sodium channels subtypes (hNaV1.3, rNaV1.4, hNaV1.5 and hNaV1.7), along with β1 subunit to increase the current density and green fluorescent protein to serve as the report protein, were individually transiently transfected into HEK 293 cells using the lipofectamine 2000 (Invitrogen, Carlsbad, CA, USA) according to its manufacturer’s instructions. HEK293 cells were cultured under standard cell culture condition (5% CO2; 37 °C) in DMEM supplemented with 10% FBS. At 36–72 h after transfection, cells with green fluorescence were selected for whole-cell patch-clamp recording at room temperature. The pipette solution contained (in mM): 140 CsF, 10 NaCl, 10 HEPES and 1 EGFA, pH7.3. The bathing solution contained (in mM): 140 NaCl, 10 HEPES, 3 KCl, 1 MgCl2 and 1 CaCl2, pH7.3.
Sodium currents were recorded on experimental cells using whole-cell patch-clamp techniques at room temperature (20–25 °C). Patch pipettes with DC resistance of 2~3 MΩ were fabricated from borosilicate glass tubing (VWR micropipettes; VWR Co., West Chester, PA, USA) using a two-stage vertical microelectrode puller (PC-10; Narishige, Tokyo, Japan) and fire-polished by a heater (Narishige, Tokyo, Japan). Whole-cell patch-clamp recordings were performed by an Axon 700B patch-clamp amplifier (Axon Instruments, Irvine, CA, USA). The P/4 protocol was used to subtract linear capacitive and leakage currents. Experimental data were acquired and analyzed using the programs Clampfit 10.0 (Axon Instruments, Irvine, CA, USA) and Sigmaplot 90 (Sigma, St. Louis, MO, USA).
Before use, the solution was diluted to the concentration of interest with fresh bathing solution. Toxin was introduced into the recording chamber (volume of 300 μL) and mixed by repeatedly pipetting 30 μL to achieve the demanded final concentration. The mixing process typically took ~5 s.
Data were analyzed using the Clampfit (Molecular Devices, Irvine, CA, USA) and Sigmaplot 10.0 (Sigma, St. Louis, MO, USA) software programs. All data points are shown as mean ± S.E. n is the number of the separated experimental cells. […] The Hill coefficient was set to 1 except where indicated. The box plots were generated at http://boxplot.tyerslab.com. In the box plots, center lines show the medians; box limits indicate the 25th and 75th percentiles as determined by R software; whiskers extend 1.5 times the interquartile range from the 25th and 75th percentiles, outliers are represented by dots. Time courses were fitted by using single exponential decay function.
In general terms: In patch-clamp work, channel activity is measured electrically.

Another assay addresses T2, hNaV1.7 (Homo sapiens, UniProt Q15858).
T2 construct: expressed in transfected cells; host or cells: HEK 293 cells, transient transfection
The assay can be described thus: Whole-cell patch-clamp inhibition of hNaV1.7 in HEK 293 cells. Particulars: 100 nM toxin, approximate.

The target in a further assay is T3, hNaV1.3 (Homo sapiens, UniProt Q9NY46).
T3 construct: expressed in transfected cells; host or cells: HEK 293 cells, transient transfection
The assay can be described thus: Whole-cell patch-clamp inhibition of hNaV1.3 in HEK 293 cells. Particulars: 100 nM toxin, approximate.

In a further assay the target is T4, hNaV1.5 (Homo sapiens, UniProt Q14524).
T4 construct: expressed in transfected cells; host or cells: HEK 293 cells, transient transfection
The assay can be described thus: Whole-cell patch-clamp inhibition of hNaV1.5 in HEK 293 cells.
From the text: as §1
All the voltage gated sodium channels subtypes (hNaV1.3, rNaV1.4, hNaV1.5 and hNaV1.7), along with β1 subunit to increase the current density and green fluorescent protein to serve as the report protein, were individually transiently transfected into HEK 293 cells using the lipofectamine 2000 (Invitrogen, Carlsbad, CA, USA) according to its manufacturer’s instructions. […] At 36–72 h after transfection, cells with green fluorescence were selected for whole-cell patch-clamp recording at room temperature. […]
Sodium currents were recorded on experimental cells using whole-cell patch-clamp techniques at room temperature (20–25 °C). […] Experimental data were acquired and analyzed using the programs Clampfit 10.0 (Axon Instruments, Irvine, CA, USA) and Sigmaplot 90 (Sigma, St. Louis, MO, USA). […]
Data were analyzed using the Clampfit (Molecular Devices, Irvine, CA, USA) and Sigmaplot 10.0 (Sigma, St. Louis, MO, USA) software programs. […]

[1] abbreviates: read-out: IC50 on rNaV1.4 (alanine mutants).

Where two headings read alike, the source gives them in different places.

T1 sequence (P15390 whole entry): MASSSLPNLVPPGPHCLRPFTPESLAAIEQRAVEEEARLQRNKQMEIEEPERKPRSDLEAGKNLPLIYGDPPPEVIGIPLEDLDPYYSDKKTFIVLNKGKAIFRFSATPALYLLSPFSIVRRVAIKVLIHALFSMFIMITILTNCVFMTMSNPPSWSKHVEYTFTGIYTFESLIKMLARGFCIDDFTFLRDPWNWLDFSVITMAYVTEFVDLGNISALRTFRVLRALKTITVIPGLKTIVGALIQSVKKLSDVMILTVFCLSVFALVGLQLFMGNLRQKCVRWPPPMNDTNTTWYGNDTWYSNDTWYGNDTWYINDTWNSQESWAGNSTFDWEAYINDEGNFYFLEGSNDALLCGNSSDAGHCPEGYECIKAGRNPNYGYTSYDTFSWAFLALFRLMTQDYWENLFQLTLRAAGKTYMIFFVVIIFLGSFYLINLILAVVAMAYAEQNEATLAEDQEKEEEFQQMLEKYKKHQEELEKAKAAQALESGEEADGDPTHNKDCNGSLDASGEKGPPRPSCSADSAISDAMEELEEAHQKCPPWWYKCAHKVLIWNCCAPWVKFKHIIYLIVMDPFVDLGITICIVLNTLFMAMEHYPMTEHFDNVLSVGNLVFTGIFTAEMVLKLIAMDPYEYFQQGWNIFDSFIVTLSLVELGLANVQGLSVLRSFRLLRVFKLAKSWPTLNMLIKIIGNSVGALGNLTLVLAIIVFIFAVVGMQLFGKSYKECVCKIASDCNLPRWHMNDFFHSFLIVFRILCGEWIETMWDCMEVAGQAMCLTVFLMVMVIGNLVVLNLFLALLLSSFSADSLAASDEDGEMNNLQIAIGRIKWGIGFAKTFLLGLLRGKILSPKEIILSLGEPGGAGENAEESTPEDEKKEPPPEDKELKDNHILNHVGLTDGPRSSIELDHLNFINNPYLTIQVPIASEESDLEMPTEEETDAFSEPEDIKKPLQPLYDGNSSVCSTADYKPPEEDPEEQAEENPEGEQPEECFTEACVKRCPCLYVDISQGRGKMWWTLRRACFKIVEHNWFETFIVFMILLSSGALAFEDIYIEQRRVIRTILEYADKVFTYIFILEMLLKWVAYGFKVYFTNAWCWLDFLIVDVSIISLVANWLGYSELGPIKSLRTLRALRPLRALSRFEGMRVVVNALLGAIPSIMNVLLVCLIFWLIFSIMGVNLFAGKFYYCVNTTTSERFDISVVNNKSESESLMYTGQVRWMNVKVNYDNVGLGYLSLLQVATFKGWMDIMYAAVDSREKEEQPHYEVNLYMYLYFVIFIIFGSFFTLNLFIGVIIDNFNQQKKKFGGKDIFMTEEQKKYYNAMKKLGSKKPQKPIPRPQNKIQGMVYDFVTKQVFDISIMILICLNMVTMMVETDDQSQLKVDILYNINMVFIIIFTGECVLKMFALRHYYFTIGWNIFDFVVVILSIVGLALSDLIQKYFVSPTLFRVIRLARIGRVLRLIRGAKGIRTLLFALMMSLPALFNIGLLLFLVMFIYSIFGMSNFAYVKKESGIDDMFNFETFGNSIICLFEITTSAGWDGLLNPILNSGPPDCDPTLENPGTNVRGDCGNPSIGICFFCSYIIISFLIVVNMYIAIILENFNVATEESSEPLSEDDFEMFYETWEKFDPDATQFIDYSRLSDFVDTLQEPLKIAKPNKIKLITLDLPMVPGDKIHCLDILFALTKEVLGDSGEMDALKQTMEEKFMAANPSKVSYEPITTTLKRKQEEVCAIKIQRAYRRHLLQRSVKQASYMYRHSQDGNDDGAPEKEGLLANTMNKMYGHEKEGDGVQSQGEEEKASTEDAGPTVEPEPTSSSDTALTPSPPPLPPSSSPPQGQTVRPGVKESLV
T1 sequence (Q07699 19-218, further chain): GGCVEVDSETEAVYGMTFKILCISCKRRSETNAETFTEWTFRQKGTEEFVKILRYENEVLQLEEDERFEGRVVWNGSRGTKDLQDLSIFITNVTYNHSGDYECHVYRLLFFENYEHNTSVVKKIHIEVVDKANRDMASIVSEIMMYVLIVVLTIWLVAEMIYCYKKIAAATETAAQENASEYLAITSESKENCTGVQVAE
T4 sequence (Q14524 whole entry): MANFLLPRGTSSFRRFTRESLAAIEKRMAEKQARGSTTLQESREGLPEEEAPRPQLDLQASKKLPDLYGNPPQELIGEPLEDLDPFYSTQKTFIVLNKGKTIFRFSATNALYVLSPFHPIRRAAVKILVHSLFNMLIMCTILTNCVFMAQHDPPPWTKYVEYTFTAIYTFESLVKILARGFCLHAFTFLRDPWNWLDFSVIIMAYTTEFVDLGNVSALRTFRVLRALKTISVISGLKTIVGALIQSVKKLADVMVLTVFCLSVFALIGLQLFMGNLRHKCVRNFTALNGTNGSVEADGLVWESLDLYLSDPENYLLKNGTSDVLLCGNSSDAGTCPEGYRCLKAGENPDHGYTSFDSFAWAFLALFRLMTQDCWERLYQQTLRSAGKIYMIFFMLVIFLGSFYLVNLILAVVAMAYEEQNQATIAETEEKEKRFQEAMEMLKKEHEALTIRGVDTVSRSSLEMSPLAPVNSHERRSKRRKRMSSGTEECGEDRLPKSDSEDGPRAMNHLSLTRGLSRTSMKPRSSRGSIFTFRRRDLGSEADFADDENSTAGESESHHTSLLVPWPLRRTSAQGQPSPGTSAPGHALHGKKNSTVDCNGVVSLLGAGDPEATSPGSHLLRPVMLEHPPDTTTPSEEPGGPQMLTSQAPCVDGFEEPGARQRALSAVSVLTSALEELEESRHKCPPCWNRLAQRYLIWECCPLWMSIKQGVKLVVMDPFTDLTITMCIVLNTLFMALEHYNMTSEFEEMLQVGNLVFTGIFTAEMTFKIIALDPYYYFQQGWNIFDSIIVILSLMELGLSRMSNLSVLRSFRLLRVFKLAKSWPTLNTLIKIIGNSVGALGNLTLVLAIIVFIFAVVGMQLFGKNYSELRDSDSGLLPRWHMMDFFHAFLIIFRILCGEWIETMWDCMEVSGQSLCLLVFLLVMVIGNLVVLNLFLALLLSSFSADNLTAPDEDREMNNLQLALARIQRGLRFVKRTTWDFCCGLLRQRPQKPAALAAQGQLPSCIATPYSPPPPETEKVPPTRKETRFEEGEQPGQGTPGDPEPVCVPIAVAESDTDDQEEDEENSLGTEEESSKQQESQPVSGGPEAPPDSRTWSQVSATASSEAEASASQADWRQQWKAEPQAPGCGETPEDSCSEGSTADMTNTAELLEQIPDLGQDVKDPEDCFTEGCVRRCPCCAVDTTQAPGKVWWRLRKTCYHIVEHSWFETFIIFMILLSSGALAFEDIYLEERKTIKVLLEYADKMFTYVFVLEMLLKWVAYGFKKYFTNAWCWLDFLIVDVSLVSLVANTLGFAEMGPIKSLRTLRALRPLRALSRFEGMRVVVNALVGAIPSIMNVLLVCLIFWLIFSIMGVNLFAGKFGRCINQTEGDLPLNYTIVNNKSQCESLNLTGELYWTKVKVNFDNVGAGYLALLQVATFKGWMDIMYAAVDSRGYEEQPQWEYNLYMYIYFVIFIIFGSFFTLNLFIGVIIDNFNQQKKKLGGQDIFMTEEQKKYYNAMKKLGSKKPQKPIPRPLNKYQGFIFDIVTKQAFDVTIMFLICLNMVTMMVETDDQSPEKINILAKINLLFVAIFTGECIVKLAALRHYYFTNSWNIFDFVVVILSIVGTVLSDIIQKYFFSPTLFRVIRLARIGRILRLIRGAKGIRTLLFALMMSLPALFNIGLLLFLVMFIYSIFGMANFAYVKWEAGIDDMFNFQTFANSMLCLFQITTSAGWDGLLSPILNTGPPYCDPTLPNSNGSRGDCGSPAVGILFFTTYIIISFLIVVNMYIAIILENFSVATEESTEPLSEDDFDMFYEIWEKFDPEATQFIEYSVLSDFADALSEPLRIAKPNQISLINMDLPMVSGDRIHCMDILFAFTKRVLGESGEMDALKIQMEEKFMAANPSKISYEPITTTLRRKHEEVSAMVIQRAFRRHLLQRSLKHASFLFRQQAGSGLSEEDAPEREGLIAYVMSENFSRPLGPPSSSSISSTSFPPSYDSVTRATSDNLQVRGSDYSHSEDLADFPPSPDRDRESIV

With `CC[C@H](C)[C@H](NC(=O)[C@@H](NC(=O)[C@H](CCCCN)NC(=O)[C@H](CCCNC(=N)N)NC(=O)[C@@H]1CSSC[C@@H]2NC(=O)[C@H](C)NC(=O)[C@H](CCCNC(=N)N)NC(=O)[C@H](CCCCN)NC(=O)[C@H](CO)NC(=O)[C@H](CC(=O)O)NC(=O)[C@@H]3CSSC[C@H](NC(=O)[C@H](CCCNC(=N)N)NC(=O)[C@H](CC(C)C)NC(=O)CNC(=O)[C@H](CCC(=O)O)NC(=O)[C@H](CSSC[C@H](NC(=O)[C@@H](N)Cc4ccc(O)cc4)C(=O)N[C@@H](CCC(N)=O)C(=O)N[C@@H](CCCCN)C(=O)N[C@@H](Cc4c[nH]c5ccccc45)C(=O)N[C@@H](CCSC)C(=O)N[C@@H](Cc4c[nH]c5ccccc45)C(=O)N[C@@H]([C@@H](C)O)C(=O)N3)NC2=O)C(=O)N[C@@H](CCCCN)C(=O)N[C@@H](CC(C)C)C(=O)N[C@@H](Cc2c[nH]c3ccccc23)C(=O)N1)[C@@H](C)CC)C(N)=O` [JZTX-V], the IC50 (in general, the concentration needed to halve the response being measured) was determined as 5.12 ± 0.87 nM at rNaV1.4 (three to six cells, read-out: IC50 on rNaV1.4) and 2700 ± 779 nM against hNaV1.5 (HEK 293 cells with β1 subunit, 50-ms depolarization to −10 mV from −100 mV every 5 s, Hill fit, mean ± S.E., three to six cells, room temperature). Also, the “inhibition of hNaV1.7 inward current (Figure 1b)” value against hNaV1.7 was “approximately 45%”. Also, the “inhibition of hNaV1.3 inward current (Figure 1c)” value against hNaV1.3 was around 35%. Further, the “decrease of hNaV1.5 activation (peak current)” value on hNaV1.5 (500 nM toxin, n = 8, −10 mV from −100 mV) is given as 43% ± 6.5%.

Take `CC[C@H](C)[C@H](NC(=O)[C@@H](NC(=O)[C@H](CCCCN)NC(=O)[C@H](CCCNC(=N)N)NC(=O)[C@@H]1CSSC[C@@H]2NC(=O)[C@H](C)NC(=O)[C@H](CCCNC(=N)N)NC(=O)[C@H](CCCCN)NC(=O)[C@H](CO)NC(=O)[C@H](CC(=O)O)NC(=O)[C@@H]3CSSC[C@H](NC(=O)[C@H](CCCNC(=N)N)NC(=O)[C@H](CC(C)C)NC(=O)CNC(=O)[C@H](CCC(=O)O)NC(=O)[C@H](CSSC[C@H](NC(=O)[C@@H](N)Cc4ccc(O)cc4)C(=O)N[C@@H](CCC(N)=O)C(=O)N[C@@H](CCCCN)C(=O)N[C@@H](Cc4c[nH]c5ccccc45)C(=O)N[C@@H](CCSC)C(=O)N[C@@H](Cc4c[nH]c5ccccc45)C(=O)N[C@@H]([C@@H](C)O)C(=O)N3)NC2=O)C(=O)N[C@@H](C)C(=O)N[C@@H](CC(C)C)C(=O)N[C@@H](Cc2c[nH]c3ccccc23)C(=O)N1)[C@@H](C)CC)C(N)=O` [K22A]: the IC50 on rNaV1.4 (setting [1]) worked out at 659 ± 11 nM.

`CC[C@H](C)[C@H](NC(=O)[C@@H](NC(=O)[C@H](CCCCN)NC(=O)[C@H](CCCNC(=N)N)NC(=O)[C@@H]1CSSC[C@@H]2NC(=O)[C@H](C)NC(=O)[C@H](CCCNC(=N)N)NC(=O)[C@H](CCCCN)NC(=O)[C@H](CO)NC(=O)[C@H](CC(=O)O)NC(=O)[C@@H]3CSSC[C@H](NC(=O)[C@H](CCCNC(=N)N)NC(=O)[C@H](CC(C)C)NC(=O)CNC(=O)[C@H](CCC(=O)O)NC(=O)[C@H](CSSC[C@H](NC(=O)[C@@H](N)Cc4ccc(O)cc4)C(=O)N[C@@H](CCC(N)=O)C(=O)N[C@@H](CCCCN)C(=O)N[C@@H](Cc4c[nH]c5ccccc45)C(=O)N[C@@H](C)C(=O)N[C@@H](Cc4c[nH]c5ccccc45)C(=O)N[C@@H]([C@@H](C)O)C(=O)N3)NC2=O)C(=O)N[C@@H](CCCCN)C(=O)N[C@@H](CC(C)C)C(=O)N[C@@H](Cc2c[nH]c3ccccc23)C(=O)N1)[C@@H](C)CC)C(N)=O` [M6A]: the half-maximal inhibitory concentration (IC50) on rNaV1.4 (setting [1]) worked out at 252 ± 450 nM.

As to `CC[C@H](C)[C@H](NC(=O)[C@@H](NC(=O)[C@H](CCCCN)NC(=O)[C@H](CCCNC(=N)N)NC(=O)[C@@H]1CSSC[C@@H]2NC(=O)[C@H](C)NC(=O)[C@H](CCCNC(=N)N)NC(=O)[C@H](CCCCN)NC(=O)[C@H](CO)NC(=O)[C@H](CC(=O)O)NC(=O)[C@@H]3CSSC[C@H](NC(=O)[C@H](C)NC(=O)[C@H](CC(C)C)NC(=O)CNC(=O)[C@H](CCC(=O)O)NC(=O)[C@H](CSSC[C@H](NC(=O)[C@@H](N)Cc4ccc(O)cc4)C(=O)N[C@@H](CCC(N)=O)C(=O)N[C@@H](CCCCN)C(=O)N[C@@H](Cc4c[nH]c5ccccc45)C(=O)N[C@@H](CCSC)C(=O)N[C@@H](Cc4c[nH]c5ccccc45)C(=O)N[C@@H]([C@@H](C)O)C(=O)N3)NC2=O)C(=O)N[C@@H](CCCCN)C(=O)N[C@@H](CC(C)C)C(=O)N[C@@H](Cc2c[nH]c3ccccc23)C(=O)N1)[C@@H](C)CC)C(N)=O` [R20A], the half-inhibitory concentration (IC50) at rNaV1.4 (setting [1]) was 2100 ± 280 nM.

For the compound `CC[C@H](C)[C@H](NC(=O)[C@@H](NC(=O)[C@H](CCCCN)NC(=O)[C@H](CCCNC(=N)N)NC(=O)[C@@H]1CSSC[C@@H]2NC(=O)[C@H](C)NC(=O)[C@H](CCCNC(=N)N)NC(=O)[C@H](CCCCN)NC(=O)[C@H](CO)NC(=O)[C@H](CC(=O)O)NC(=O)[C@@H]3CSSC[C@H](NC(=O)[C@H](CCCNC(=N)N)NC(=O)[C@H](CC(C)C)NC(=O)CNC(=O)[C@H](CCC(=O)O)NC(=O)[C@H](CSSC[C@H](NC(=O)[C@@H](N)Cc4ccc(O)cc4)C(=O)N[C@@H](CCC(N)=O)C(=O)N[C@@H](CCCCN)C(=O)N[C@@H](C)C(=O)N[C@@H](CCSC)C(=O)N[C@@H](Cc4c[nH]c5ccccc45)C(=O)N[C@@H]([C@@H](C)O)C(=O)N3)NC2=O)C(=O)N[C@@H](CCCCN)C(=O)N[C@@H](CC(C)C)C(=O)N[C@@H](Cc2c[nH]c3ccccc23)C(=O)N1)[C@@H](C)CC)C(N)=O` [W5A], the half-maximal inhibitory concentration (IC50) on rNaV1.4 (setting [1]) was determined as 313 ± 260 nM.

Turning to `CC[C@H](C)[C@H](NC(=O)[C@@H](NC(=O)[C@H](CCCCN)NC(=O)[C@H](CCCNC(=N)N)NC(=O)[C@@H]1CSSC[C@@H]2NC(=O)[C@H](C)NC(=O)[C@H](CCCNC(=N)N)NC(=O)[C@H](CCCCN)NC(=O)[C@H](CO)NC(=O)[C@H](CC(=O)O)NC(=O)[C@@H]3CSSC[C@H](NC(=O)[C@H](CCCNC(=N)N)NC(=O)[C@H](CC(C)C)NC(=O)CNC(=O)[C@H](CCC(=O)O)NC(=O)[C@H](CSSC[C@H](NC(=O)[C@@H](N)Cc4ccc(O)cc4)C(=O)N[C@@H](CCC(N)=O)C(=O)N[C@@H](CCCCN)C(=O)N[C@@H](Cc4c[nH]c5ccccc45)C(=O)N[C@@H](CCSC)C(=O)N[C@@H](C)C(=O)N[C@@H]([C@@H](C)O)C(=O)N3)NC2=O)C(=O)N[C@@H](CCCCN)C(=O)N[C@@H](CC(C)C)C(=O)N[C@@H](Cc2c[nH]c3ccccc23)C(=O)N1)[C@@H](C)CC)C(N)=O` [W7A], the IC50 on rNaV1.4 (setting [1]) stood at 1920 ± 310 nM.
